From publication PMC9027111, “Morphing Natural Product Platensimycin via Heck, Sonogashira, and One-Pot Sonogashira/Cycloaddition Reactions to Produce Antibiotics with In Vivo Activity” (Antibiotics, 2022)
Converted amounts (≈) assume the structure as drawn.

What was measured:
[1] = Metabolic stability assay in pooled human liver microsomes; format: in vitro ADME; details: pH 7.4, 37 °C, NADPH, read-out: Half-Life in Human Hepatic Microsomes
Protocol: Each compound was incubated in duplicate with pooled human liver microsomes at 37 °C. The tested compounds were pre-incubated with pooled human liver microsomes in phosphate buffer (pH 7.4) for 5 min in a shaking water bath at 37 °C. The reaction was initiated by adding a NADPH-generating system and incubated for 0, 15, 30, 45, and 60 min. The reaction was stopped by transferring the incubation mixture to CH3CN/MeOH. Samples were then mixed and centrifuged. Supernatants were used for HPLC–MS/MS analysis. Data were calculated as percent parent compounds remaining by assuming zero-minute time point peak area ratio (analyte/IS) as 100% and dividing remaining time point peak area ratios by the zero-minute time point peak area ratio. Data were subjected to fit a first-order decay model to calculate both the slope and half-life.

[2] = Plasma protein binding by equilibrium dialysis; format: in vitro ADME; details: 37 °C; for Plasma Protein Binding Bound %: 5 μM, 6 h; for fraction unbound at 6 h, 5 μM: plasma, read-out: Plasma Protein Binding Free %
Protocol: Equilibrium dialysis was used to determine the plasma protein binding. All of the test compounds were treated in triplicate by RED Rapid Equilibrium Dialysis Device (Thermo Scientific, Waltham, MA, USA). In brief, the initial compound concentration (5 μM) in the plasma chamber was first set, followed by the addition of phosphate buffered saline (PBS) to the receiver chamber. The Equilibrium Dialysis Device was allowed to shake for 6 h in a 37 °C incubator. Then, 25 μL solution was sampled from the plasma and PBS chambers, respectively, and they were diluted with either blank PBS or plasma to achieve a 1:1 ratio of plasma: PBS for all samples. The concentrations of the tested compounds in the plasma and PBS chambers were determined by LC–MS/MS. The fraction bound was calculated as ([plasma]—[PBS])/[plasma].

S. aureus ATCC 29213 = experiment: MIC determination (LB agar dilution), S. aureus ATCC 29213; format: cell-based; details: Staphylococcus aureus, ATCC29213, at least two replicates
Protocol: (§1) All of the tested compounds were prepared to different concentrations with methanol, and 150 μL of the respective methanol solution was used to mix with 15 mL LB (Luria–Bertani) medium with 1% agar in each Petri dish. Linezolid and PTM were used as reference compounds for comparison. In vitro bioassay for compounds was carried out using clinical strains of S. aureus, E. coli, and Klebsilla pneumoniae. The bacteria were cultivated in LB medium and incubated for 16 h at 37 °C, 250 rpm. The resulting bacteria were diluted to approximate 0.25 at OD600, which were further diluted 10_4-fold. The diluted bacteria (2 μL) were added to Petri dish containing the respective compounds. The resulting Petri dishes were incubated for 16 h at 37 °C. The determination of MIC is the concentration of Petri dishes with no visible growth of bacteria.

MSSA 1 = experiment: MIC determination (LB agar dilution), clinical MSSA strain 1; format: cell-based; details: Staphylococcus aureus, at least two replicates
Protocol: as §1

MSSA 2 = experiment: MIC determination (LB agar dilution), clinical MSSA strain 2; format: cell-based; details: Staphylococcus aureus, at least two replicates
Protocol: as §1

MRSA 3 = experiment: MIC determination (LB agar dilution), clinical MRSA strain 3; format: cell-based; details: Staphylococcus aureus, at least two replicates
Protocol: as §1

MRSA 4 = experiment: MIC determination (LB agar dilution), clinical MRSA strain 4; format: cell-based; details: Staphylococcus aureus, at least two replicates
Protocol: as §1

MRSA = experiment: Mouse skin infection with MRSA; format: in vivo, BABL/c mice
Protocol: Mouse MRSA skin infection study was performed as described before. Female BABL/c mice (20–22 g, 7-weeks old) were anesthetized by intraperitoneal injection of 4% chloral hydrate (200 μL), and the hair of mice back surface was removed and washed with povidone iodine–propanol solution. A gauze (15 × 15 mm) was preheated in boiling water (90 °C) for 10 min, and then placed on the back of each mouse for 40 s to generate the burns. Next, the burn was bound with sterile gauze and infected with 1 × 10^8 colony-forming units (CFU) of MRSA. An open wound was witnessed at the burns after 48 h post infection. The infected mice were then divided into three groups (5 per group). A4 (200 μg) was formulated into 2% ointment consisting of 1.4% carbomer, 1.4% triethanolamine, 14% propanediol, 14% glycerinum, and 1% azone. Mupirocin (2% w/w) were used as the positive control, while vehicle used as negative control. All mice were treated twice a day for 7 days. Mice were euthanized after 24 h of the last treatment, and the wound area was slightly swabbed with 70% ethanol. Wound area (1 cm^2) was excised, homogenized, and plated onto TSB agar plates to count viable bacteria. Other skin biopsy specimens removed from the wounds were stored at 4% paraformaldehyde solution to be used for hematoxylin and eosin (HE) staining.

CC12CC34C=C(c5ccc6ccc7cccc8ccc5c6c78)C(=O)C(C)(CCC(=O)Nc5c(O)ccc(C(=O)O)c5O)C3C(CC1C4)O2 (centres unmarked) [1b, 6-pyrenyl PTM, reference compound]
half-life [1]: 1.22 h
Plasma Protein Binding Bound % [2]: 99.9%
fraction unbound at 6 h, 5 μM [2]: 0.001

CC12CC34C=C(C=CC(=O)N5CCOCC5)C(=O)C(C)(CCC(=O)Nc5c(O)ccc(C(=O)O)c5O)C3C(CC1C4)O2 (centres unmarked) [A10]
MIC (S. aureus ATCC 29213): 16 µg/mL (≈ 27.6 µM)
MIC (MSSA 1): 16 µg/mL (≈ 27.6 µM)
MIC (MSSA 2): 16 µg/mL (≈ 27.6 µM)
MIC (MRSA 3): 16 µg/mL (≈ 27.6 µM)
MIC (MRSA 4): 16 µg/mL (≈ 27.6 µM)
half-life [1]: > 2 h
Plasma Protein Binding Bound % [2]: 77%
fraction unbound at 6 h, 5 μM [2]: 0.23

CN(C)C(=O)C=CC1=CC23CC4CC(OC4(C)C2)C3C(C)(CCC(=O)Nc2c(O)ccc(C(=O)O)c2O)C1=O (centres unmarked) [A7]
MIC (S. aureus ATCC 29213): 16 µg/mL (≈ 29.7 µM)
MIC (MSSA 1): 16 µg/mL (≈ 29.7 µM)
MIC (MSSA 2): 16 µg/mL (≈ 29.7 µM)
MIC (MRSA 3): 16 µg/mL (≈ 29.7 µM)
MIC (MRSA 4): 16 µg/mL (≈ 29.7 µM)

C/C(=C\C(=O)OCCCCCCCCC(=O)O)C[C@@H]1OC[C@H](C[C@@H]2O[C@H]2[C@@H](C)[C@H](C)O)[C@@H](O)[C@H]1O [mupirocin, reference compound]
load of S. aureus on treated skin (MRSA; 2 mg topical twice a day for 7 days, n = 5/group): (6.5 ± 2.4) × 10^5 CFU/g
healing of the infected skin (MRSA; topical twice a day for 7 days, observation and H&E staining): showed the healing of the skin

CC(=O)C1=C(C)OC(Cc2ccccc2)=C2C(=O)C(C)(CCC(=O)Nc3c(O)ccc(C(=O)O)c3O)C3C4CC5CC3(CC5(C)O4)C12 (centres unmarked) [C1]
MIC (S. aureus ATCC 29213): 16 µg/mL (≈ 24.9 µM)
MIC (MSSA 1): 16 µg/mL (≈ 24.9 µM)
MIC (MSSA 2): 16 µg/mL (≈ 24.9 µM)
MIC (MRSA 3): 16 µg/mL (≈ 24.9 µM)
MIC (MRSA 4): 16 µg/mL (≈ 24.9 µM)

CC12CC34C=C(C#CC5(O)CCCCC5)C(=O)C(C)(CCC(=O)Nc5c(O)ccc(C(=O)O)c5O)C3C(CC1C4)O2 (centres unmarked) [B6]
MIC (S. aureus ATCC 29213): 4 µg/mL (≈ 7.1 µM)
MIC (MSSA 1): 4 µg/mL (≈ 7.1 µM)
MIC (MSSA 2): 4 µg/mL (≈ 7.1 µM)
MIC (MRSA 3): 4 µg/mL (≈ 7.1 µM)
MIC (MRSA 4): 4 µg/mL (≈ 7.1 µM)

CC12CC34C=C(C#Cc5cccc(N)c5)C(=O)C(C)(CCC(=O)Nc5c(O)ccc(C(=O)O)c5O)C3C(CC1C4)O2 (centres unmarked) [B9]
MIC (S. aureus ATCC 29213): 1 µg/mL (≈ 1.8 µM)
MIC (MSSA 1): 1 µg/mL (≈ 1.8 µM)
MIC (MSSA 2): 1 µg/mL (≈ 1.8 µM)
MIC (MRSA 3): 1 µg/mL (≈ 1.8 µM)
MIC (MRSA 4): 1 µg/mL (≈ 1.8 µM)

CC(=O)C1=C(C)OC(Cc2cccc(F)c2)=C2C(=O)C(C)(CCC(=O)Nc3c(O)ccc(C(=O)O)c3O)C3C4CC5CC3(CC5(C)O4)C12 (centres unmarked) [C5]
MIC (S. aureus ATCC 29213): 16 µg/mL (≈ 24.3 µM)
MIC (MSSA 1): 16 µg/mL (≈ 24.3 µM)
MIC (MSSA 2): 16 µg/mL (≈ 24.3 µM)
MIC (MRSA 3): 16 µg/mL (≈ 24.3 µM)
MIC (MRSA 4): 16 µg/mL (≈ 24.3 µM)

CC(C)(C)NC(=O)C=CC1=CC23CC4CC(OC4(C)C2)C3C(C)(CCC(=O)Nc2c(O)ccc(C(=O)O)c2O)C1=O (centres unmarked) [A9]
MIC (S. aureus ATCC 29213): 8 µg/mL (≈ 14.1 µM)
MIC (MSSA 1): 8 µg/mL (≈ 14.1 µM)
MIC (MSSA 2): 8 µg/mL (≈ 14.1 µM)
MIC (MRSA 3): 8 µg/mL (≈ 14.1 µM)
MIC (MRSA 4): 8 µg/mL (≈ 14.1 µM)

CCCCC#CC1=CC23CC4CC(OC4(C)C2)C3C(C)(CCC(=O)Nc2c(O)ccc(C(=O)O)c2O)C1=O (centres unmarked) [B2]
MIC (S. aureus ATCC 29213): 1 µg/mL (≈ 1.92 µM)
MIC (MSSA 1): 1 µg/mL (≈ 1.92 µM)
MIC (MSSA 2): 1 µg/mL (≈ 1.92 µM)
MIC (MRSA 3): 1 µg/mL (≈ 1.92 µM)
MIC (MRSA 4): 1 µg/mL (≈ 1.92 µM)

CCc1ccc(CC2=C3C(=O)C(C)(CCC(=O)Nc4c(O)ccc(C(=O)O)c4O)C4C5CC6CC4(CC6(C)O5)C3C(C(C)=O)=C(C)O2)cc1 (centres unmarked) [C3]
MIC (S. aureus ATCC 29213): 32 µg/mL (≈ 47.8 µM)
MIC (MSSA 1): 32 µg/mL (≈ 47.8 µM)
MIC (MSSA 2): 32 µg/mL (≈ 47.8 µM)
MIC (MRSA 3): 32 µg/mL (≈ 47.8 µM)
MIC (MRSA 4): 32 µg/mL (≈ 47.8 µM)
